Like-named read-outs stand apart in the source and are kept apart here.

A word on the Kd: it is a measure of binding affinity in units of concentration. A word on the IC50: it is the concentration that inhibits the measured activity by half. Low readings indicate higher potency, high ones lower potency. The term inhibition denotes the share of the control response that was lost under treatment.

One assay concerns the target T1, GST–p52 (Homo sapiens, UniProt Q00653).
T1 sequence (Q00653 1-454 limits assumed): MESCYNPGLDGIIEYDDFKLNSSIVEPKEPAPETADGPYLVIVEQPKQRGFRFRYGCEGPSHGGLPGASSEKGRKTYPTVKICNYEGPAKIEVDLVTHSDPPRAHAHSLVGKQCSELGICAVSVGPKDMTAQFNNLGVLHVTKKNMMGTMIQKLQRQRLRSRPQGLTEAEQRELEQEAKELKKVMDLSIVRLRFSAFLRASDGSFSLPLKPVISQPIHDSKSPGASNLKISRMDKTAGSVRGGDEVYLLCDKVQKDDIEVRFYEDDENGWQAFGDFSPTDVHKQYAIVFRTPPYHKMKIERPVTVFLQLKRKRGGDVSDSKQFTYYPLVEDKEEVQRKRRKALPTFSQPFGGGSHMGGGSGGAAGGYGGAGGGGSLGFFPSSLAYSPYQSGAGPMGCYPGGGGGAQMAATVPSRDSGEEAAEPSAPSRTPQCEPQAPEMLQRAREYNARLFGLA
The assay is described as follows: SPR analysis with immobilized GST–p52. Type of assay: binding. The method, then:
(§1) SPR biosensor measurements were performed at 25 °C using a Biacore T100 instrument (GE Healthcare, Chicago, IL, USA). […] Next, 4 µg/mL GST–RelA or 5 µg/mL GST (GE Healthcare) was flowed through the channel (5 μL/min, for 180 s) and captured on the sensor chip. […] Dissociation constants were computed by fitting to a 1:1 interaction model using Biacore (GE Healthcare). Stoichiometry was calculated based on the theoretical Rmax value, where the theoretical Rmax = MWA/MWL RL SM (A, analyte; L, ligand; RL, immobilization level of ligand RU; SM, stoichiometry).
Background: In SPR one partner is held on a chip, and binding of the other changes the refractive index at the surface.

Assay [1] concerns the target T2, p52 (Homo sapiens, UniProt Q00653).
T2 sequence (Q00653 1-454 limits assumed): T1 sequence (Q00653 1-454 limits assumed)
The assay is described as follows: EMSA with recombinant p52. In kind it is biochemical.

In the next assay the target is RelA (Homo sapiens, UniProt Q04206). The assay is described as follows: EMSA with recombinant RelA. In kind it is biochemical. For orientation: Mobility shift assays separate free from complexed probe on a gel.
The target in a further assay is T3, p50 (Homo sapiens, UniProt P19838).
T3 sequence (P19838 1-433 limits assumed): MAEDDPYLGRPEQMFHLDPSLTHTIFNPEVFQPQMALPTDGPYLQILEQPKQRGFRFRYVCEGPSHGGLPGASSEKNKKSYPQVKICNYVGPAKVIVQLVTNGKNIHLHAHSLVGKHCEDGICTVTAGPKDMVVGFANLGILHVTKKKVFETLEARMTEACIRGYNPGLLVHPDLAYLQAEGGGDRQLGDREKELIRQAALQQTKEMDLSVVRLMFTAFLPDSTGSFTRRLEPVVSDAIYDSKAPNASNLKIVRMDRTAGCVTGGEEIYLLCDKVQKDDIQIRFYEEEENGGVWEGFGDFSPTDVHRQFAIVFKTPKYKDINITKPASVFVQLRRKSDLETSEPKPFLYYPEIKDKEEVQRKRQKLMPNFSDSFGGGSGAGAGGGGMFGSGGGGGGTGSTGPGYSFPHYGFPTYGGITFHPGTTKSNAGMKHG
The assay is described as follows: DSE-FRET p50–DNA binding inhibition. In kind it is biochemical.

Assay [2] has as its target T2, p52. The assay is described as follows: DSE-FRET p52–DNA binding inhibition. Type of assay: biochemical.
Description: (§2) Plate-based (384 scale) DNA-binding experiments were carried out with 0.1 µL of 2 mM or 1 mg/mL compound, 2 µL of 80 nM NF-D1 (consisting of NF-01F and NF-14D), 1 µL of 20 ng/µL poly dI-dC, and 6.9 µL of 3.2 pmol protein in binding buffer (10 mM 4-(2-hydroxyethyl)-1-piperazineethanesulfonic acid (HEPES)–NaOH pH 7.9, 50 mM KCl, 0.1 mM ethylenediaminetetraacetic acid (EDTA), 2.5 mM dithiothreitol (DTT), 10% glycerol, and 0.05% Nonidet P40). The plates were incubated for 30 min at room temperature, after which 10 µL of NF-D2 (consisting of NF-02 and NF-13) was added. The plates were centrifuged at 1000 rpm for 30 s, followed by shaking for 30 s using a plate shaker (Biotec). Fluorescence was measured at 528 nm, after excitation at 485 nm, using a multiplate reader (Biotec) over a period of 60 min.
The next assay addresses T4, cRel (Homo sapiens, UniProt Q04864).
T4 construct: GST; made in house
T4 sequence (Q04864 1-619): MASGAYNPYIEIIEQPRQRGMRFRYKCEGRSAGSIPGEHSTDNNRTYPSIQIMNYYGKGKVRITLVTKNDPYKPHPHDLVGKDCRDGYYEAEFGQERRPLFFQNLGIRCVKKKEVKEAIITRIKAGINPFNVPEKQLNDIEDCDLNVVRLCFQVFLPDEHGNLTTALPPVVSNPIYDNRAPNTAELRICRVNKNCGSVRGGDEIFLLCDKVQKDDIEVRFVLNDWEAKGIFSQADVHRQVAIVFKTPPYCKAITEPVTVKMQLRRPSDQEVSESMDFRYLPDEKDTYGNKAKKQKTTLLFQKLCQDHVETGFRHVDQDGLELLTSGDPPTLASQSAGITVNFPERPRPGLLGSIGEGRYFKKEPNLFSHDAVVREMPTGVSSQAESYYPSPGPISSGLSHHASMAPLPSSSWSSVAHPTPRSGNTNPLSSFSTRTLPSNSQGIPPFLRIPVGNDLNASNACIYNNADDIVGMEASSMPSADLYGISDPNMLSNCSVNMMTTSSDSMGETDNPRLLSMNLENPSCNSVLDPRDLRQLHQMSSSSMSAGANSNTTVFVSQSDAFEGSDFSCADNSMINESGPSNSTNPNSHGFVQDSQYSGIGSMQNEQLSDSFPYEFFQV
Nature of the assay: DSE-FRET cRel–DNA binding inhibition. In kind it is biochemical.

A further assay concerns PK8 cells. Nature of the assay: Cell viability assay (PrestoBlue), TNF-α-treated PK8 cells. In kind it is cell-based, human. The settings on record: TNF-α 50 ng/mL, 48 h. The method, then:
The human pancreatic carcinoma cell line PK8 was grown in Roswell Park Memorial Institute 1640 Medium (RPMI) (SIGMA; R8758) supplemented with 10% fetal bovine serum (FBS) at 37 °C with 5% CO2.
Cell viability was measured using the PrestoBlue assay according to the standard protocol (Thermo Fisher Scientific, Waltham, MA, USA: A13261). PK8 cells were cultivated on 96-well plates. After a 48 h treatment with TNF-α (50 ng/mL) in the presence or absence of A55, the culture medium was replaced with fresh medium containing 10% PrestoBlue and incubated for an additional 1 h at 37 °C and 5% CO2. Fluorescence intensity was then measured using a multiplate reader (EnSpire, PerkinElmer, Waltham, MA, USA).

For the next assay, the target named is GST–RelA (Homo sapiens, UniProt Q04206). The assay is described as follows: SPR analysis with immobilized GST–RelA. In kind it is binding. The settings on record: for Rmax / Kd: GST–RelA; for Kd: read-out: dissociation constant (Kd). The procedure:
as §1

GST–RelA, sequence (Q04206 19-306 limits assumed): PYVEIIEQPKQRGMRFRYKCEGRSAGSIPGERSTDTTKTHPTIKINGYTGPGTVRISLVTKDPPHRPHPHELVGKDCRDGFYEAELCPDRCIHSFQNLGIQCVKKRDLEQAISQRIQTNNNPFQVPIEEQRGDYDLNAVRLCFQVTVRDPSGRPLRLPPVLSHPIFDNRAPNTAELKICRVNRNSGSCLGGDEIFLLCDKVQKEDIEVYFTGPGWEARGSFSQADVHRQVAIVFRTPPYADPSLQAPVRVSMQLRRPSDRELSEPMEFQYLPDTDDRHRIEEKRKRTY
RelA, sequence (Q04206 19-306 limits assumed): as above
Description for cRel: as §2
Description for p50: as §2

On to `Cc1cc(O)n(CC(=O)O)c(=O)c1C(N)=O` [A55, 2-(3-carbamoyl-6-hydroxy-4-methyl-2-oxopyridin-1(2H)-yl) acetic acid], for which the dissociation constant Kd amounted to 1.27 µM at GST–p52, 2.87 µM at GST–RelA (0.625–20 µM A55) and 13 µM at GST–RelA (3.125–100 µM A55). The Rmax was 11.4 RU at GST–p52 (GST–p52, 3.125–100 µM A55); 7.3 RU on GST–RelA (0.625–20 µM A55); 4.7 RU at GST–RelA (3.125–100 µM A55). The compound also displayed an Rmax GST-p52 at GST–p52 (Run 1, 100 uM - […], theoretical Rmax 3.4) of 11.4 RU. Further, the “EMSA inhibition of p52–DNA binding” value on p52 [1] is given as “selectively inhibited the RelA–DNA binding”. The “EMSA inhibition of RelA–DNA binding” value at RelA was “selectively inhibited the RelA–DNA binding”. For the same compound, the 50% inhibitory concentration (IC50) at p50, on p52 [2] (DSE-FRET) and on cRel was above 100 µM each time. The “p52–DNA binding inhibition at 50 µM” value on p52 [2] (96-well plates, 50 µM) was “inhibited only RelA–DNA binding”. The inhibition at 50 µM on p52 [2] (96 well plate, 50 µM, 120 min-0 min, read-out: Kinetic assay @ 50 µM p52 Inhibition % ΔRFU(120 min-0 min)) came out at 6.66%. Besides, the “cell proliferation / growth inhibition” value in the assay on PK8 cells is “enhanced the growth inhibition of TNF-α-treated PK8 cells in a dose-dependent manner”. Further, the Rmax GST-RelA at GST–RelA (Run 1, 100 uM - […], theoretical Rmax 4.5) was determined as 4.7 RU; on GST–RelA (Run 2, 20 uM - […], theoretical Rmax 5.0), 7.3 RU.

The values are drawn from publication PMC7734590, “Identification of a Selective RelA Inhibitor Based on DSE-FRET Screening Methods” (International Journal of Molecular Sciences, 2020).
